Test results published in patent publication US20120295965A1, “FUSED THIOPHENES AS DUAL INHIBITORS OF EGFR/VEGFR AND THEIR USE IN THE TREATMENT OF CANCER” (priority 2009, published 2012).

Assays:
EGFR [1] = target: T1, EGFR (Homo sapiens, UniProt P00533); details: known inhibitors; cited from earlier work
[2] = system: mallotoxin response in HT29; assay: Epic label-free DMR biosensor cellular assay, hERG activator mallotoxin marker in HT29
Method: HT29 expresses VEGFR1 (Flt1 receptor), but not other VEGF receptors.
(§1) All cell lines were obtained from American Type Cell Culture (Manassas, Va.). The cell culture medium was as follows: (1) Dulbecco's modified Eagle's medium (DMEM) supplemented with 10% fetal bovine serum (FBS), 4.5 g/liter glucose, 2 mM glutamine, and antibiotics for human epidermoid carcinoma A431; and (2) McCoy's 5a Medium Modified supplemented with 10% FBS, 4.5 g/liter glucose, 2 mM glutamine, and antibiotics for human colorectal adenocarcinoma HT29.
(§2) Cells were typically grown using ˜1 to 2×10^4 cells per well at passage 3 to 15 suspended in 50 μl of the corresponding culture medium in the biosensor microplate, and were cultured at 37° C. under air/5% CO2 for ˜1 day. Except for A431 which underwent one day culture followed by one starvation in serum free medium, all other cells were directly assayed without starvation.
(§3) Epic® beta version wavelength interrogation system (Corning Inc., Corning, N.Y.) was used for whole cell sensing. This system consists of a temperature-control unit, an optical detection unit, and an on-board liquid handling unit with robotics. The detection unit is centered on integrated fiber optics, and enables kinetic measures of cellular responses with a time interval of ˜15 sec.
For biosensor cellular assays, molecule solutions were made by diluting the stored concentrated solutions with the HBSS (1× Hanks balanced salt solution, plus 20 mM Hepes, pH 7.1), and transferred into a 384well polypropylene molecule storage plate to prepare a molecule source plate. Both molecule and marker source plates were made separately when a two-step assay was performed. In parallel, the cells were washed twice with the HBSS and maintained in 30 μl of the HBSS to prepare a cell assay plate. Both the cell assay plate and the molecule and marker source plate(s) were then incubated in the hotel of the reader system. After ˜1 hr of incubation the baseline wavelengths of all biosensors in the cell assay microplate were recorded and normalized to zero. Afterwards, a 2 to 10 minute continuous recording was carried out to establish a baseline, and to ensure that the cells reached a steady state. Cellular responses were then triggered by pipetting 10 μl of the marker solutions into the cell assay plate using the on-board liquid handler.
(§4) To study the influence of molecules on a marker-induced response, a second stimulation with the marker at a fixed dose (typically at EC80 or EC100) was applied. The resonant wavelengths of all biosensors in the microplate were normalized again to establish a second baseline, right before the second stimulation. The two stimulations were usually separated by ˜1 hr.
(§5) All studies were carried out at a controlled temperature (28° C.). At least two independent sets of experiments, each with at least three replicates, were performed.
(§6) The DMR modulation index were generated against 4 markers across two distinct cell lines—the EGFR agonist EGF in A431 (EGF at 32 nM), and the EGFR agonist EGF in HT29 (EGF at 2 nM), the hERG activator mallotoxin (MTX) in HT29 (MTX at 16 micromlar), and the NTS1/NTS3 agonist neurotensin (NT) in HT29 (NT at 2 nM). The EGF responses in A431 cells include the early P-DMR event (˜5 min after EGF stimulation) and the subsequent N-DMR event (˜30 min after EGF stimulation). The EGF responses in HT29 include the early P-DMR event (˜5 min after EGF stimulation) and the late P-DMR event (˜50 min after EGF stimulation), whereas the mallotoxin response in HT29 is the P-DMR response 50 min after MTX stimulation, and the NT response in HT29 is the P-DMR 50 min after NT stimulation. In all cases, the amplitudes of respective DMR events were used as the basis to calculate the percentages of modulation by each inhibitor.

NT response in HT29 = assay: Epic label-free DMR biosensor cellular assay, neurotensin marker in HT29; type: cell-based, human
Method: The NTS1 natural agonist neurotensin is known to activate the endogenous NTS1/NTS3 heterodimers in HT29 cells. […] Thus, neurotensin was chosen as an indirect marker for identifying potential EGFR inhibitors.
as §1
as §2, with “starvation. The confluency for all cells at the time of assays was ˜95% to 100%.” for “starvation.”
as §3, §4, §5, §6

[3] = system: EGF response in A431 cells; assay: Epic label-free DMR biosensor cellular assay, EGF marker in A431; type: cell-based, human
Method: as §1
as §2, with “starvation. The confluency for all cells at the time of assays was ˜95% to 100%.” for “starvation.”
as §3, §4, §5, §6

EGF response in HT29 = assay: Epic label-free DMR biosensor cellular assay, EGF marker in HT29; type: cell-based, human
Method: as §1
as §2, with “starvation. The confluency for all cells at the time of assays was ˜95% to 100%.” for “starvation.”
as §3, §4, §5, §6

VEGFR2 (KDR) = target: T2, VEGFR2 (KDR) (Homo sapiens, UniProt P35968); assay: LanthaScreen TR-FRET kinase assay, VEGFR2 (KDR); type: biochemical; details: for inhibition of FRET signal of VEGFR2 tyrosine kinase: compounds at 25 micromolar, FIG. 3
T2 construct: purchased Invitrogen
T2 sequence (P35968 20-1356): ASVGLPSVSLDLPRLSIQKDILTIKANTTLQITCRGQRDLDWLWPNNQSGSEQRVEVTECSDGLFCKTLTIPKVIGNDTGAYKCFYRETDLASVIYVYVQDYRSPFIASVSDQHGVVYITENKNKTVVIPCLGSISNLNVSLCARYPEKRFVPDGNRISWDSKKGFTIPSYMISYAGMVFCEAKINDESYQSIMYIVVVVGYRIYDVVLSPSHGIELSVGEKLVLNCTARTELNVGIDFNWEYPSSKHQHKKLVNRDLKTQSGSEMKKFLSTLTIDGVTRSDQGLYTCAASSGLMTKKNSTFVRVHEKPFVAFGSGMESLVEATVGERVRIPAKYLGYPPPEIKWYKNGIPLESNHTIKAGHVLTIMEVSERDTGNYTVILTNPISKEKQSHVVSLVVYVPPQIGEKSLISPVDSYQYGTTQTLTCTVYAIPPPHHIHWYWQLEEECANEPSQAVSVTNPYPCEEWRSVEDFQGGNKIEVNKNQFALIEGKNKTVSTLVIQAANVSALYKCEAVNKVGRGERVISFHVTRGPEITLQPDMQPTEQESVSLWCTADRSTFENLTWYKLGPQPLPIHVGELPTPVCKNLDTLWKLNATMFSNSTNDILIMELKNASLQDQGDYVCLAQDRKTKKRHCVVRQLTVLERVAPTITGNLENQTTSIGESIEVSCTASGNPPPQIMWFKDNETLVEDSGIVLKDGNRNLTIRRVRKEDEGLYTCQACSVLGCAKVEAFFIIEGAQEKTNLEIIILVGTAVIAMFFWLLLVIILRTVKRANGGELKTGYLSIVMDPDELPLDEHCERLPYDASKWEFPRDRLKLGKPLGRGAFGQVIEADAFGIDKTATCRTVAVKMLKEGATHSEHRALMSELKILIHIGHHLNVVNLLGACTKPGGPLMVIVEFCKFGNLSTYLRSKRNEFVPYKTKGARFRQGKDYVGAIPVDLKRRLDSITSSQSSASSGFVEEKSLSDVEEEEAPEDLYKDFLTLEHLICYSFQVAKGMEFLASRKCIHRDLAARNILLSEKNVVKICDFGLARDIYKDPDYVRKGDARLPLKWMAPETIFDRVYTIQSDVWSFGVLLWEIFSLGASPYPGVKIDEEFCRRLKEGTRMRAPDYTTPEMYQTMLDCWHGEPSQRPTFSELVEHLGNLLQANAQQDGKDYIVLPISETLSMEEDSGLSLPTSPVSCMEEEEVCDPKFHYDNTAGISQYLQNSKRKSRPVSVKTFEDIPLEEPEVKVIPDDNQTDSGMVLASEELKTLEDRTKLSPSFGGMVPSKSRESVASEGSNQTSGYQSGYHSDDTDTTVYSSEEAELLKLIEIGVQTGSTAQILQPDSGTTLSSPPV
Method: (§7) LanthaScreen TR-FRET kinase assay reagents and the recombinant EGFR, VEGFR1 (FLT1), VEGFR2 (KDR) were purchased from Invitrogen. Known kinase inhibitors were used as positive controls.
(§8) Each EGFR reaction contains 51 ng/ml kinase, 2.4 μM ATP and 0.2 μM substrate. […] Each VEGFR2 (KDR) reaction contains 4 ng/ml kinase, 13 μM ATP and 0.2 μM substrate. Kinase reactions are allowed to proceed for 1 hour at room temperature before a 10 μl preparation of EDTA (20 mM) and Tb-labeled antibody (4 nM) in TR-FRET dilution buffer are added. The final concentration of antibody in the assay well is 2 nM, and the final concentration of EDTA is 10 mM. The plate is allowed to incubate at room temperature for at least 30 minutes before being read on a Tecan SafireII plate reader configured for LanthaScreen™ TR-FRET (Excitation at 340 nm, emission at 495 nm and 520 nm). The final readout is the emission ratio 520 nm/495 nm. Each data point is the average of 4 replicates.

VEGFR1 (FLT1) = target: T3, VEGFR1 (FLT1) (Homo sapiens, UniProt P17948); assay: LanthaScreen TR-FRET kinase assay, VEGFR1 (FLT1); type: biochemical
T3 construct: purchased Invitrogen
T3 sequence (P17948 27-1338): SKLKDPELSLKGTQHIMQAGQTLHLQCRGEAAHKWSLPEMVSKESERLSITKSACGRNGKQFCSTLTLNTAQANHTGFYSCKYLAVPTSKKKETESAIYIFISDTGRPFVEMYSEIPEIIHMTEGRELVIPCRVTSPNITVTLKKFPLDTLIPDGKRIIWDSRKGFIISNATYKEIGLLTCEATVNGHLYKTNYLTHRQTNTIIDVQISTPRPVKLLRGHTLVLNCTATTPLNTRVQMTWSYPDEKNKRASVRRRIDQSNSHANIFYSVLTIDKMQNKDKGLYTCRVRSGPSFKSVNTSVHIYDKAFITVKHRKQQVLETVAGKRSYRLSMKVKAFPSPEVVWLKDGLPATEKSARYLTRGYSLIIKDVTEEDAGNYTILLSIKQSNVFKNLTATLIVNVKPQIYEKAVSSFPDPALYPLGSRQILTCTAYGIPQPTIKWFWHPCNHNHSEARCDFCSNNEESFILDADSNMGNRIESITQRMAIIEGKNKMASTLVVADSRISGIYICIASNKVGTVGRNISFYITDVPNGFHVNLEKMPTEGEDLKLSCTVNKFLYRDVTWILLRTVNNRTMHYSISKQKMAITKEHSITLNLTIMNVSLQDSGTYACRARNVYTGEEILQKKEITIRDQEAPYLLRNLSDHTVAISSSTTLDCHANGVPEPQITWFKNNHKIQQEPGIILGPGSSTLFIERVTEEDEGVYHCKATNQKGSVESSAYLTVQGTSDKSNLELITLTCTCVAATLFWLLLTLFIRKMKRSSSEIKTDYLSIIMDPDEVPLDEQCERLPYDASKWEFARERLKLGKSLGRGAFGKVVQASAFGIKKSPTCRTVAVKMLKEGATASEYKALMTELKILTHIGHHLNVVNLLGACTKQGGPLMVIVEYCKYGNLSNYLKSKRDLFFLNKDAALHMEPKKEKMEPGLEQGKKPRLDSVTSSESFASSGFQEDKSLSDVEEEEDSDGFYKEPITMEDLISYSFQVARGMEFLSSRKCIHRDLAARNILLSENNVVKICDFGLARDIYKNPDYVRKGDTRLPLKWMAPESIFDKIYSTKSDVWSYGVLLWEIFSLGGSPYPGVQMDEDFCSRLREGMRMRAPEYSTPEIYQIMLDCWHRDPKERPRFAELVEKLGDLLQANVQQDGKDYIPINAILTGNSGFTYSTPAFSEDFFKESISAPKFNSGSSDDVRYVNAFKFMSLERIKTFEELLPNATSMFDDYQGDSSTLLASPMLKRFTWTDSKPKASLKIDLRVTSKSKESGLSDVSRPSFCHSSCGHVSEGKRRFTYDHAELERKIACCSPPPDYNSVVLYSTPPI
Method: as §7, §8

EGFR [4] = target: T1, EGFR; assay: LanthaScreen TR-FRET kinase assay, EGFR; type: biochemical; parameters: purchased Invitrogen; details: compounds at 25 micromolar; FIG. 1
HT29 cells = details: up to 100 nM; un-starved HT29 cells; data not shown
[5] = compounds at 25 micromolar, FIG. 2

T1 sequence (P00533 25-1210): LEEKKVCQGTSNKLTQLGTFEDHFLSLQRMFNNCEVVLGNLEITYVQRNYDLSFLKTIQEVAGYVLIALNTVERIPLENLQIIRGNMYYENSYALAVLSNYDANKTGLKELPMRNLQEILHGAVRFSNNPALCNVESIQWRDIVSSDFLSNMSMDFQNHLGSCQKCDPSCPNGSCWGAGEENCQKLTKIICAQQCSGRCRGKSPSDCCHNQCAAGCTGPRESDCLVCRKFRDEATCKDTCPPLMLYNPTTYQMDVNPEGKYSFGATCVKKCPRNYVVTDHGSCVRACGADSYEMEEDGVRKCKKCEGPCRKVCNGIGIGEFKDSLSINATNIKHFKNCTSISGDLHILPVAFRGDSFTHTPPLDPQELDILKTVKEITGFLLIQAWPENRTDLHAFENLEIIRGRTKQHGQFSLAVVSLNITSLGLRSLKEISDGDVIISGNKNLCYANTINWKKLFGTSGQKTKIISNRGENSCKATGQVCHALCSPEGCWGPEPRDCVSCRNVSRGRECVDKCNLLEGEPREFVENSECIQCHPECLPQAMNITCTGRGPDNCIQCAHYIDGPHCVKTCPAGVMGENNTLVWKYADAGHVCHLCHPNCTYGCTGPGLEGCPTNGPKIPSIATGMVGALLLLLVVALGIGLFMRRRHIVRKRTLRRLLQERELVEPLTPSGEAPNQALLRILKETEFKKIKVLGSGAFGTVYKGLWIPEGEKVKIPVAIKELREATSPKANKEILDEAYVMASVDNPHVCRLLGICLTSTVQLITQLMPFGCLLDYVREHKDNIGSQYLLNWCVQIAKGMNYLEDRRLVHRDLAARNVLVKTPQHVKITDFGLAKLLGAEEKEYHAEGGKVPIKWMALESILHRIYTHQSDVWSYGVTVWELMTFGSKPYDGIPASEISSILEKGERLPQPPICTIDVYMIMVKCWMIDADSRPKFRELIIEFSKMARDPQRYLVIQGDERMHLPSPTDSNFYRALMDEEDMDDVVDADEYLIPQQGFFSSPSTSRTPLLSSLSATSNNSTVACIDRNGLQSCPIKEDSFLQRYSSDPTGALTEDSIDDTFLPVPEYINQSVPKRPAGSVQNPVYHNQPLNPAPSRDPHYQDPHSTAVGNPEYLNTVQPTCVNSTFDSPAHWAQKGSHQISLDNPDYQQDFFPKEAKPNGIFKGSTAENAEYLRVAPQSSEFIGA

O=C(O)c1cc(N(Cc2ccccc2O)Cc2cc(O)ccc2O)ccc1O [Lavendustin A]
strength as EGFR inhibitor (EGFR [1]): weak EGFR inhibitor

CCCCCCCCCCc1csc2c(CCCCCC)c(C(=O)O)sc12 [I]
modulation of MTX response in HT29, P-DMR ([2]; MTX at 16 micromolar, P-DMR 50 min after MTX stimulation): −60% | modulation index score, MTX in HT29 P-DMR ([2]; score = modulation percentage/10, 5th coordinate): −6 | modulation of NT response in HT29, P-DMR (NT response in HT29; NT at 2 nM, P-DMR 50 min after NT stimulation): −106% | modulation index score, NT in HT29 P-DMR (NT response in HT29; score = modulation percentage/10, 6th coordinate): −10.6 | modulation of EGF response in A431, N-DMR ([3]; EGF at 32 nM, N-DMR ~30 min after EGF stimulation): −65% | modulation of EGF response in A431, early P-DMR ([3]; EGF at 32 nM, early P-DMR ~5 min after EGF stimulation): −60% | modulation index score, EGF in A431 N-DMR ([3]; score = modulation percentage/10, 2nd coordinate): −6.5 | modulation of EGF response in HT29, early P-DMR (EGF response in HT29; EGF at 2 nM, early P-DMR ~5 min after EGF stimulation): −70% | modulation of EGF response in HT29, late P-DMR (EGF response in HT29; EGF at 2 nM, late P-DMR ~50 min after EGF stimulation): −100% | modulation index score, EGF in HT29 early P-DMR (EGF response in HT29; score = modulation percentage/10, 3rd coordinate): −7 | modulation index score, EGF in HT29 late P-DMR (EGF response in HT29; score = modulation percentage/10, 4th coordinate): −10

O=C1Nc2ccc(Br)cc2/C1=C/c1cc2c([nH]1)CCCC2 [VEGFR2 tyrosine kinase inhibitor II, (Z)-5-Bromo-3-(4,5,6,7-tetrahydro-1H-indol-2-ylmethylene)-1,3-dihydroindol-2-one]
impact on DMR signal of MTX in HT29 ([2]; MTX at 16 micromolar): little impact | impact on DMR signal of NT in HT29 (NT response in HT29; NT at 2 nM): little impact | impact on DMR signal of EGF in A431 ([3]; EGF at 32 nM): little impact | impact on DMR signal of EGF in HT29 (EGF response in HT29; EGF at 2 nM): little impact

CCOC(=O)c1c(C)[nH]c(/C=C2\C(=O)Nc3ccccc32)c1C [VEGFR2 tyrosine kinase inhibitor I, (Z)-3-[(2,4-Dimethyl-3-(ethoxycarbonyl)pyrrol-5-yl)methylidenyl]indolin-2-one]
impact on DMR signal of MTX in HT29 ([2]; MTX at 16 micromolar): little impact | impact on DMR signal of NT in HT29 (NT response in HT29; NT at 2 nM): little impact | impact on DMR signal of EGF in A431 ([3]; EGF at 32 nM): little impact | impact on DMR signal of EGF in HT29 (EGF response in HT29; EGF at 2 nM): little impact

CCCCCCc1csc2c(CCCCCC)c(C(=O)O)sc12 [Compound J, 3,6-Dihexyl-thieno[3,2-b]thiophene-2-carboxylic acid]
inhibition of FRET signal of VEGFR2 tyrosine kinase (VEGFR2 (KDR)): less potent than the others | inhibition of FRET signal of VEGFR1 tyrosine kinase (VEGFR1 (FLT1); [5]): less potent than the others | inhibition of FRET signal of EGFR tyrosine kinase (EGFR [4]): less potent than the others

CCCCCCc1csc2cc(C(=O)O)sc12 [Compound H, 6-hexyl-thieno[3,2-b]thiophene-2-carboxylic acid]
inhibition of FRET signal of VEGFR2 tyrosine kinase (VEGFR2 (KDR)): less potent than the others | inhibition of FRET signal of VEGFR1 tyrosine kinase (VEGFR1 (FLT1); [5]): less potent than the others | inhibition of FRET signal of EGFR tyrosine kinase (EGFR [4]): less potent than the others

c1ccc(-c2cnc(Nc3ccc(OCCN4CCCC4)cc3)s2)cc1 [Flt3 inhibitor III, (5-Phenyl-thiazol-2-yl)-(4-(2-pyrrolidin-1-yl-ethoxy)-phenyl)-amine]
impact on DMR signal of MTX in HT29 ([2]; MTX at 16 micromolar): little impact | impact on DMR signal of NT in HT29 (NT response in HT29; NT at 2 nM): little impact | impact on DMR signal of EGF in A431 ([3]; EGF at 32 nM): little impact | impact on DMR signal of EGF in HT29 (EGF response in HT29; EGF at 2 nM): little impact

6H-Indeno[1,2-e]tetrazolo[1,5-b][1,2,4]triazin-6-one & 10H-Indeno[2,1-e]tetrazolo[1,5-b][1,2,4]triazin-10-one [dual PDK1/AKT/Flt1 pathway inhibitor]
effect on early P-DMR event in the EGF response in A431 ([3]; EGF at 32 nM, early P-DMR): almost completely attenuated | effect on early P-DMR event of the EGF response in HT29 (EGF response in HT29; EGF at 2 nM, early P-DMR): almost completely attenuated | effect on late P-DMR event of the EGF response in HT29 (EGF response in HT29; EGF at 2 nM, late P-DMR): almost completely attenuated

CN[C@@H]1C[C@H]2O[C@@](C)([C@@H]1OC)n1c3ccccc3c3c4c(c5c6ccccc6n2c5c31)C(=O)NC4 [staurosporine, reference compound]
inhibition of FRET signal of VEGFR1 tyrosine kinase (VEGFR1 (FLT1); at 10 micromolar): completely inhibited

C[C@@H](N)[C@H]1CC[C@H](C(=O)Nc2ccncc2)CC1 [Compound Y-27632, reference compound]
attenuation of FRET signal for VEGFR2 tyrosine kinase (VEGFR2 (KDR); concentration not given): significantly attenuated

COc1cc2ncnc(Nc3cccc(Cl)c3)c2cc1OC [AG1478]
impact on DMR signal of MTX in HT29 ([2]; MTX at 16 micromolar): partial inhibition | impact on DMR signal of NT in HT29 (NT response in HT29; NT at 2 nM): partial inhibition

VEGF
DMR signal triggered (HT29 cells): very small DMR signal

Cc1csc2c1sc1cc(C(=O)O)sc12 [Compound K, 5-methyldithieno[3,2-b:2′3′-d] thiophene-2-carboxyl acid]
inhibition of FRET signal of VEGFR2 tyrosine kinase (VEGFR2 (KDR)): less potent than the others | inhibition of FRET signal of VEGFR1 tyrosine kinase (VEGFR1 (FLT1); [5]): less potent than the others | inhibition of FRET signal of EGFR tyrosine kinase (EGFR [4]): less potent than the others
